Experimental data: patent US7687624B2, “Process for the production of N-arylmorpholinones” (Merck Patent GmbH, priority 2003, dated 2010)

Columns and labels:
[1] = pKa value of the amine; cited from earlier work

Compound | melting point [°C] | pKa [1]
O=C1COCCN1c1ccc([N+](=O)[O-])cc1 [Example 1, 4-(4-Nitrophenyl)-3-oxomorpholine] | 150 to 152 | 
N#Cc1ccc(N)cc1 [4-Cyanoaniline] |  | 1.7
Nc1cccc([N+](=O)[O-])c1 [3-Nitroaniline] |  | 2.5
NCc1ccccc1 [Benzylamine] |  | 9.5
Nc1ccccc1[N+](=O)[O-] [2-Nitroaniline] |  | −0.23
Nc1ccc(C(=O)c2ccccc2)cc1 [4-Aminobenzophenone] |  | 2.2
Cc1cc([N+](=O)[O-])ccc1N [2-Methyl-4-nitroaniline] |  | 1.04
COc1ccc(N)cc1 [4-Methoxyaniline] |  | 5.4
COC(=O)c1ccc(N)cc1 [Methyl 4-aminobenzoate] |  | 1.5
